IC50 data for twelve compounds are collected here from patent US20260207602A1, “EGFR INHIBITORS” (Blueprint Medicines Corporation, priority 2022, published 2026).

For one assay, the target named is T1, EGFR L858R (Homo sapiens, UniProt P00533, L858R).
T1 construct: purchased SignalChem E10-122BG
Put plainly: Biochemical EGFR inhibition assay (Caliper mobility shift), EGFR L858R. Particulars: biochemical Caliper mobility shift assay, EGFR L858R enzyme; read-out: Enz EGFR L858R IC50. The essentials:
(§1)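 Kinase activity measured as phosphorylation of 2.5 µM 5-FAM-labelled peptide substrate in 100 mM HEPES pH 7.5, 10 mM MgCl2, 0.015% Brij-35, 1 mM DTT, 1.0% DMSO, at 1.0 mM ATP or ATP Km. Run at 25 °C to 10–20% conversion, stopped with EDTA; product resolved by mobility shift, apparent IC50 from percent activity vs log concentration.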

For a further assay, the target named is T2, EGFR (d746-750) (Homo sapiens, UniProt P00533, DEL746-750).
T2 construct: purchased SignalChem E10-122JG
T2 sequence (P00533 with tags, fused parts or gaps DEL746-750 limits assumed): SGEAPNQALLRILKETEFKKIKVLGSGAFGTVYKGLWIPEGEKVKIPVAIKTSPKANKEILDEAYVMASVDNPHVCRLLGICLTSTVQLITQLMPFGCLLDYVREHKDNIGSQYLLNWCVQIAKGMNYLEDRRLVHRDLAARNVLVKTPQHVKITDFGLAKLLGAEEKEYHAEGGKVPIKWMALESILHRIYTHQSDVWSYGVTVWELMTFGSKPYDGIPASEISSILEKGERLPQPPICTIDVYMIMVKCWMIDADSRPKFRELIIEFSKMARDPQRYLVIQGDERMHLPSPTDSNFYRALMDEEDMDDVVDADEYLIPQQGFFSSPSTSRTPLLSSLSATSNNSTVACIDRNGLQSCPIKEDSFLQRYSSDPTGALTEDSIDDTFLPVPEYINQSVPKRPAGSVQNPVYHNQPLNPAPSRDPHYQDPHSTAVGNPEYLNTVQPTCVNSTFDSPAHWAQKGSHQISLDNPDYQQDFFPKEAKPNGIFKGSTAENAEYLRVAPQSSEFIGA
Put plainly: Biochemical EGFR inhibition assay (Caliper mobility shift), EGFR (d746-750). Particulars: biochemical Caliper mobility shift assay, EGFR Exon 19-del enzyme; read-out: Enz EGFR Exon 19-del IC50. A digest of the protocol:
as §1

The target in assay [1] is intracellular phosphorylation of EGFR (Tyr1068) in PC-9 cells (Homo sapiens, UniProt P00533, DEL746-750). Briefly: PC-9 pEGFR AlphaLISA assay. Format: cell-based. Conditions: 4 hours incubation, read-out: Phos EGFR PC9 IC50. A digest of the protocol:
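PC-9 cells (EGFR del746-750) in phenol-free DMEM/10% FBS, adhered overnight, then exposed to 10-point 4-fold compound dilutions for 4 h at 37 °C. Lysates assayed for pEGFR Tyr1068 by AlphaLISA SureFire Ultra; IC50 from percent pEGFR inhibition vs log concentration.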
On the technique in general: In Alpha technology, singlet oxygen from a donor bead excites a nearby acceptor bead.

pIC50: −log10 of the molar value.

T1 sequence (P00533 25-1210 L858R): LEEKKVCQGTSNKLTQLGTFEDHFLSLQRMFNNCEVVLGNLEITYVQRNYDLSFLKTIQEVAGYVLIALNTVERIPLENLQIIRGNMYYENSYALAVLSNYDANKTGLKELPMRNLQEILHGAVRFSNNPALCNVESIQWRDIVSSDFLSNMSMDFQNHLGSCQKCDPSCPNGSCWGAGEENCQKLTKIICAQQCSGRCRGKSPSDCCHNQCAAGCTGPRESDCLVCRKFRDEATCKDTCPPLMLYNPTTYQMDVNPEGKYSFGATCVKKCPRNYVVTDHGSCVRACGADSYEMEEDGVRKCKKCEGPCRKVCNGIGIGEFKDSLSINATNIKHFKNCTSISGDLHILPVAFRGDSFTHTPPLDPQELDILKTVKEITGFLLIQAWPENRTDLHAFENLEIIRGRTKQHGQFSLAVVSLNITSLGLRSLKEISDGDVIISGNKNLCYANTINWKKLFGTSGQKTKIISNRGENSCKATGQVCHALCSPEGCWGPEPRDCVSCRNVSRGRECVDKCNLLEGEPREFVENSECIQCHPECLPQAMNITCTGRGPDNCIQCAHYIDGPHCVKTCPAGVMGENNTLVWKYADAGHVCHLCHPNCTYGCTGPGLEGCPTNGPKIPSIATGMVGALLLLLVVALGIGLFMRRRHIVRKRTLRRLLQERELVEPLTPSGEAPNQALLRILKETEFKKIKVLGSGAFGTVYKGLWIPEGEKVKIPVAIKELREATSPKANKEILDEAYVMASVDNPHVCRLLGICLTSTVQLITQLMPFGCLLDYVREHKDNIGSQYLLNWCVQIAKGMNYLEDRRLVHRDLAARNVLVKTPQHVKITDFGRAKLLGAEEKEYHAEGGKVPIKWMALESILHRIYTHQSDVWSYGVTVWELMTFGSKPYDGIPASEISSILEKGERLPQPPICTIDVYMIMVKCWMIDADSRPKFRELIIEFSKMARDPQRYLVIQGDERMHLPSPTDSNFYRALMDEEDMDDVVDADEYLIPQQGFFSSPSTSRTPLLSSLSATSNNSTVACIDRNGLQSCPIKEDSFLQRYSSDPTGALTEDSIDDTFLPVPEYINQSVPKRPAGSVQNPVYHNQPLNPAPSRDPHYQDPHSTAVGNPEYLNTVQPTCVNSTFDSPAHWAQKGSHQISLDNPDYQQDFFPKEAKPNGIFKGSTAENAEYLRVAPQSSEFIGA
Sequence of intracellular phosphorylation of EGFR (Tyr1068) in PC-9 cells (P00533 with tags, fused parts or gaps DEL746-750): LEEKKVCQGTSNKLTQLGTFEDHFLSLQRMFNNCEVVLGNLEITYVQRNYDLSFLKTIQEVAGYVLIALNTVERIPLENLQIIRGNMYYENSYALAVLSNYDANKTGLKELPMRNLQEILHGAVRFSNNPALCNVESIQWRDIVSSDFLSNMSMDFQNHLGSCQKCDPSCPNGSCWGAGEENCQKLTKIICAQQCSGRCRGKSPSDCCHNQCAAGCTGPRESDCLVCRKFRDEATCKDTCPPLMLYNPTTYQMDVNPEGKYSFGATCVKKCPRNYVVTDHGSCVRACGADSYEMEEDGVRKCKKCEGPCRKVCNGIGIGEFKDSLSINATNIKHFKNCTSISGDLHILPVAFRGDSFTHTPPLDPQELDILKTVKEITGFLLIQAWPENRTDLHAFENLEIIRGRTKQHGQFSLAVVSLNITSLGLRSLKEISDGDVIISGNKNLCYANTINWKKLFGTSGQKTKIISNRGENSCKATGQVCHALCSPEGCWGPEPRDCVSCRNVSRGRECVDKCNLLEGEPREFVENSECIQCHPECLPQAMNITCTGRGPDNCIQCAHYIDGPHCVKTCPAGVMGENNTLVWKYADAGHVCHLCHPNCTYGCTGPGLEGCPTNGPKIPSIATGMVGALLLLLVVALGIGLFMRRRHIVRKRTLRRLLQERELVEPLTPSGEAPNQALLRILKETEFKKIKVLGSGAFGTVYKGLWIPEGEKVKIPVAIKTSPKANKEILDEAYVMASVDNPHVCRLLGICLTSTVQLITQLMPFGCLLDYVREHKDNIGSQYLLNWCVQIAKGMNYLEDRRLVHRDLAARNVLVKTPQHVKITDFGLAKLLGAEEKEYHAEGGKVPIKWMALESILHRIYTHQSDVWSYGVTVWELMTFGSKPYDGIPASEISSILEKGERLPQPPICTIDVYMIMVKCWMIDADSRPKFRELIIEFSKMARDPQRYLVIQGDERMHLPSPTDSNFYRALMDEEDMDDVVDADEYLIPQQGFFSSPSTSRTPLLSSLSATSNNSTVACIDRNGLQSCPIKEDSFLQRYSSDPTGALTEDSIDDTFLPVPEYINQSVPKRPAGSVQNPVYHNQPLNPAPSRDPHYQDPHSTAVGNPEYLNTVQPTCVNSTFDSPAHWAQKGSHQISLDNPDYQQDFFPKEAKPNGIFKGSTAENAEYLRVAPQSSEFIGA

In the case of `C[C@H]1[C@H](Oc2cc(-c3cnn(C)c3)cc3ncnc(Nc4ccc5ncsc5c4)c23)CN1C` (single isomer, unassigned) [Example 321], the pIC50 (as a rule, −log10 of the IC50, conventionally taken in molar units) was 7.30 to 8.00 at EGFR L858R, ≥ 8.00 on EGFR (d746-750) and 7.30 to 8.00 in assay [1].

As to `C[C@@H](Oc1cc(-c2cnn(C)c2)cc2ncnc(Nc3ccc4ncsc4c3F)c12)C1CCOCC1` (single isomer, unassigned) [Example 111], the pIC50 (at EGFR L858R; on EGFR (d746-750); in assay [1]) was ≥ 8.00 throughout.

In the case of `C[C@@H](Oc1cc(-c2cnn(CC(C)(C)O)c2)cc2ncnc(Nc3ccc4ncsc4c3)c12)C1COC1` (single isomer, unassigned) [Example 127], the pIC50 (at EGFR L858R; on EGFR (d746-750); in assay [1]) was ≥ 8.00 each time.

In the case of `Cc1ccn(-c2cc(OC3CCOCC3)c3c(Nc4ccc5ncsc5c4)ncnc3c2)n1` [Example 136, N-(7-(3-methyl-1H-pyrazol-1-yl)-5-((tetrahydro-2H-pyran-4-yl)oxy)quinazolin-4-yl)benzo[d]thiazol-6-amine], the negative logarithm of the IC50 (pIC50) on EGFR L858R is ≥ 8.00; on EGFR (d746-750), ≥ 8.00; in assay [1], 7.30 to 8.00.

As to `Cn1cc(-c2cc(OC3COC3)c3c(Nc4ccc5ncsc5c4)ncnc3c2)cn1` [Example 406, N-(7-(1-methyl-1H-pyrazol-4-yl)-5-(oxetan-3-yloxy)quinazolin-4-yl)benzo[d]thiazol-6-amine], the pIC50 (on EGFR L858R; on EGFR (d746-750); in assay [1]) was ≥ 8.00 each time.

Take `Cn1cc(-c2cc(OCC(F)(F)F)c3c(Nc4ccc5ncsc5c4)ncnc3c2)cn1` [Example 50, N-(7-(1-methyl-1H-pyrazol-4-yl)-5-(2,2,2-trifluoroethoxy)quinazolin-4-yl)benzo[d]thiazol-6-amine]: the pIC50 on EGFR L858R was ≥ 8.00; on EGFR (d746-750), ≥ 8.00; in assay [1], 7.30 to 8.00.

For the compound `Cn1cc(-c2cc(O[C@@H]3CNC[C@H](F)C3)c3c(Nc4ccc5ncsc5c4)ncnc3c2)cn1` (racemic) [Example 329, cis-N-(5-(((3S,5R)-5-fluoropiperidin-3-yl)oxy)-7-(1-methyl-1H-pyrazol-4-yl)quinazolin-4-yl)benzo[d]thiazol-6-amine], the pIC50 (at EGFR L858R; on EGFR (d746-750); in assay [1]) was ≥ 8.00 each time.

Take `COc1cn(C)nc1-c1cc(O[C@H](C)C2COC2)c2c(Nc3ccc4ncsc4c3F)ncnc2c1` (single isomer, unassigned) [Example 80]: the pIC50 (at EGFR L858R; on EGFR (d746-750); in assay [1]) was ≥ 8.00 in each case.

`C[C@@H](Oc1cc(-c2cnn(C)c2)cc2ncnc(Nc3ccc4ncsc4c3)c12)C(CO)CN(C)C` (mixture of isomers) [Example A55, rac-(3R)-3-((4-(benzo[d]thiazol-6-ylamino)-7-(1-methyl-1H-pyrazol-4-yl)quinazolin-5-yl)oxy)-2-((dimethylamino)methyl)butan-1-ol]: the pIC50 (at EGFR L858R; at EGFR (d746-750); in assay [1]) was ≥ 8.00 each time.

With `Cn1cc(-c2cc(O[C@@H]3CC[C@H]3O)c3c(Nc4ccc5ncsc5c4)ncnc3c2)cn1` (single isomer, unassigned) [Example A53], the pIC50 (on EGFR L858R; on EGFR (d746-750); in assay [1]) was ≥ 8.00 throughout.

Take `Cn1cc(-c2cc(O[C@H]3CCNC[C@@H]3F)c3c(Nc4ccc5ncsc5c4)ncnc3c2)cn1` (single isomer, unassigned) [Example 346]: the pIC50 (at EGFR L858R; on EGFR (d746-750); in assay [1]) was ≥ 8.00 each time.

Take `Cn1cc(-c2cc(OCC(=O)N3CCOCC3)c3c(Nc4ccc5ncsc5c4)ncnc3c2)cn1` [Example 273, 2-((4-(benzo[d]thiazol-6-ylamino)-7-(1-methyl-1H-pyrazol-4-yl)quinazolin-5-yl)oxy)-1-morpholinoethan-1-one]: the pIC50 (on EGFR L858R; at EGFR (d746-750); in assay [1]) was ≥ 8.00 throughout.
